Reference: ChEMBL document CHEMBL3390836, “Mannich- and LedererManasse-based analogues of the natural product S-(+)-curcuphenol as cancer proliferation and migration inhibitors” (Medchemcomm, 2012)

How the values were obtained:
Format in all cases: functional
[1] = tested on: NCI-H23; assay: Cytotoxicity against human NCI-H23 cells assessed as cell growth at 10^-4 M after 48 hrs by SRB assay relative to control; conditions: NCI-H23, 48 h, read-out: Activity
[2] = Cytotoxicity against human HCT116 cells assessed as cell growth at 10^-4 M after 48 hrs by SRB assay relative to control; conditions: HCT-116, 48 h, read-out: Activity
[3] = tested on: HT-29; assay: Cytotoxicity against human HT-29 cells assessed as cell growth at 10^-4 M after 48 hrs by SRB assay relative to control; conditions: HT-29, 48 h, read-out: Activity
[4] = tested on: SF-268; assay: Cytotoxicity against human SF268 cells assessed as cell growth at 10^-4 M after 48 hrs by SRB assay relative to control; conditions: SF-268, 48 h, read-out: Activity
[5] = tested on: Malme-3M; assay: Cytotoxicity against human MALME-3M cells after 48 hrs by SRB assay
[6] = tested on: RXF 393; assay: Cytotoxicity against human RXF393 cells after 48 hrs by SRB assay; conditions: RXF 393, 48 h
[7] = tested on: TK-10; assay: Cytotoxicity against human TK10 cells after 48 hrs by SRB assay; conditions: TK-10, 48 h
[8] = tested on: SNB-75; assay: Cytotoxicity against human SNB75 cells assessed as cell growth at 10^-4 M after 48 hrs by SRB assay relative to control; conditions: SNB-75, 48 h, read-out: Activity
[9] = tested on: MDA-MB-435; assay: Cytotoxicity against human MDA-MB-435 cells assessed as cell growth at 10^-4 M after 48 hrs by SRB assay relative to control; conditions: MDA-MB-435, 48 h, read-out: Activity
[10] = tested on: KM12; assay: Cytotoxicity against human KM12 cells assessed as cell growth at 10^-8 M after 48 hrs by SRB assay relative to control; conditions: KM12, 48 h, read-out: Activity
[11] = tested on: SNB-75; assay: Cytotoxicity against human SNB75 cells assessed as cell growth at 10^-8 M after 48 hrs by SRB assay relative to control; conditions: SNB-75, 48 h, read-out: Activity
[12] = tested on: RXF 393; assay: Cytotoxicity against human RXF393 cells assessed as cell growth at 10^-4 M after 48 hrs by SRB assay relative to control; conditions: RXF 393, 48 h, read-out: Activity
[13] = Cytotoxicity against human UO31 cells assessed as cell growth at 10^-4 M after 48 hrs by SRB assay relative to control; conditions: UO-31, 48 h, read-out: Activity
[14] = Cytotoxicity against human PC3 cells assessed as cell growth at 10^-4 M after 48 hrs by SRB assay relative to control; conditions: PC-3, 48 h, read-out: Activity
[15] = tested on: SK-MEL-5; assay: Cytotoxicity against human SK-MEL-5 cells assessed as cell growth at 10^-8 M after 48 hrs by SRB assay relative to control; conditions: SK-MEL-5, 48 h, read-out: Activity
[16] = Cytotoxicity against human OVCAR4 cells assessed as cell growth at 10^-8 M after 48 hrs by SRB assay relative to control; conditions: OVCAR-4, 48 h, read-out: Activity
[17] = Cytotoxicity against human NCI-ADR-RES cells assessed as cell growth at 10^-8 M after 48 hrs by SRB assay relative to control; conditions: read-out: Activity
[18] = tested on: TK-10; assay: Cytotoxicity against human TK10 cells assessed as cell growth at 10^-8 M after 48 hrs by SRB assay relative to control; conditions: TK-10, 48 h, read-out: Activity
[19] = Cytotoxicity against human PC3 cells assessed as cell growth at 10^-8 M after 48 hrs by SRB assay relative to control; conditions: PC-3, 48 h, read-out: Activity
[20] = tested on: MDA-MB-468; assay: Cytotoxicity against human MDA-MB-468 cells assessed as cell growth at 10^-8 M after 48 hrs by SRB assay relative to control; conditions: MDA-MB-468, 48 h, read-out: Activity
[21] = tested on: COLO 205; assay: Cytotoxicity against human COLO205 cells assessed as cell growth at 10^-7 M after 48 hrs by SRB assay relative to control; conditions: COLO 205, 48 h, read-out: Activity
[22] = tested on: A549; assay: Cytotoxicity against human A549 cells after 48 hrs by SRB assay; conditions: A549, 48 h
[23] = tested on: SF-268; assay: Cytotoxicity against human SF268 cells after 48 hrs by SRB assay; conditions: SF-268, 48 h
[24] = tested on: SF-539; assay: Cytotoxicity against human SF539 cells after 48 hrs by SRB assay; conditions: SF-539, 48 h
[25] = tested on: IGROV-1; assay: Cytotoxicity against human IGROV1 cells assessed as cell growth at 10^-7 M after 48 hrs by SRB assay relative to control; conditions: IGROV-1, 48 h, read-out: Activity
[26] = Cytotoxicity against human OVCAR4 cells assessed as cell growth at 10^-7 M after 48 hrs by SRB assay relative to control; conditions: OVCAR-4, 48 h, read-out: Activity
[27] = Cytotoxicity against human OVCAR8 cells assessed as cell growth at 10^-7 M after 48 hrs by SRB assay relative to control; conditions: OVCAR-8, 48 h, read-out: Activity
[28] = Cytotoxicity against human NCI-ADR-RES cells assessed as cell growth at 10^-7 M after 48 hrs by SRB assay relative to control; conditions: read-out: Activity
[29] = tested on: ACHN; assay: Cytotoxicity against human ACHN cells assessed as cell growth at 10^-7 M after 48 hrs by SRB assay relative to control; conditions: read-out: Activity
[30] = tested on: HL-60(TB); assay: Cytotoxicity against human HL-60(TB) cells assessed as cell growth at 10^-6 M after 48 hrs by SRB assay relative to control; conditions: HL-60, 48 h, read-out: Activity
[31] = tested on: SW-620; assay: Cytotoxicity against human SW620 cells assessed as cell growth at 10^-6 M after 48 hrs by SRB assay relative to control; conditions: SW-620, 48 h, read-out: Activity
[32] = tested on: SF-295; assay: Cytotoxicity against human SF295 cells assessed as cell growth at 10^-6 M after 48 hrs by SRB assay relative to control; conditions: SF-295, 48 h, read-out: Activity
[33] = tested on: U-251; assay: Cytotoxicity against human U251 cells assessed as cell growth at 10^-6 M after 48 hrs by SRB assay relative to control; conditions: U-251, 48 h, read-out: Activity
[34] = tested on: SK-MEL-5; assay: Cytotoxicity against human SK-MEL-5 cells assessed as cell growth at 10^-6 M after 48 hrs by SRB assay relative to control; conditions: SK-MEL-5, 48 h, read-out: Activity
[35] = tested on: A498; assay: Cytotoxicity against human A498 cells assessed as cell growth at 10^-6 M after 48 hrs by SRB assay relative to control; conditions: A498, 48 h, read-out: Activity
[36] = Cytotoxicity against human Hs 578T cells assessed as cell growth at 10^-6 M after 48 hrs by SRB assay relative to control; conditions: read-out: Activity
[37] = read-out: LC50 (the source's name)

**Q.** With `COc1ccc(CCN2COc3c([C@@H](C)CCC=C(C)C)ccc(C)c3C2)cc1OC` as the compound, how does the growth at 100 µM [1] read?
**A.** Its growth at 100 µM is -92%.

**Q.** And the growth at 100 µM [2]?
**A.** Its growth at 100 µM is -100%.

**Q.** And the growth at 100 µM [3]?
**A.** Its growth at 100 µM is -89%.

**Q.** And the growth at 100 µM [4]?
**A.** The growth at 100 µM was -88%.

**Q.** What about the GI50 [5] of the same compound?
**A.** The GI50 was 1.53 µM.

**Q.** What about the TGI [5] of the same compound?
**A.** The TGI was 3.18 µM.

**Q.** What about the CC50 [5, 37] of the same compound?
**A.** Its CC50 is 6.61 µM.

**Q.** What about the GI50 [6] of the same compound?
**A.** Its GI50 is 1.73 µM.

**Q.** What about the LC50 (concentration killing 50% of cells) [6] of the same compound?
**A.** Its LC50 (concentration killing 50% of cells) is 18.2 µM.

**Q.** And the TGI [6]?
**A.** Its TGI is 4.85 µM.

**Q.** What about the GI50 [7] of the same compound?
**A.** Its GI50 is 2.19 µM.

**Q.** And the LC50 [7]?
**A.** Its LC50 is 24.6 µM.

**Q.** What about the TGI [7] of the same compound?
**A.** The TGI was 5.95 µM.

**Q.** And the growth at 100 µM [8]?
**A.** The growth at 100 µM was -50%.

**Q.** And the growth at 100 µM [9]?
**A.** The growth at 100 µM was -78%.

**Q.** And the growth at 0.01 µM [10]?
**A.** Its growth at 0.01 µM is 98%.

**Q.** And the growth at 0.01 µM [11]?
**A.** Its growth at 0.01 µM is 79%.

**Q.** And the growth at 100 µM [12]?
**A.** The growth at 100 µM was -92%.

**Q.** And the growth at 100 µM [13]?
**A.** The growth at 100 µM was -96%.

**Q.** What about the growth at 100 µM [14] of the same compound?
**A.** Its growth at 100 µM is -61%.

**Q.** What about the growth at 0.01 µM [15] of the same compound?
**A.** Its growth at 0.01 µM is 96%.

**Q.** What about the growth at 0.01 µM [16] of the same compound?
**A.** The growth at 0.01 µM was 96%.

**Q.** And the growth at 0.01 µM [17]?
**A.** The growth at 0.01 µM was 98%.

**Q.** What about the growth at 0.01 µM [18] of the same compound?
**A.** The growth at 0.01 µM was 88%.

**Q.** What about the growth at 0.01 µM [19] of the same compound?
**A.** The growth at 0.01 µM was 94%.

**Q.** What about the growth at 0.01 µM [20] of the same compound?
**A.** Its growth at 0.01 µM is 75%.

**Q.** What about the growth at 0.1 µM [21] of the same compound?
**A.** Its growth at 0.1 µM is 103%.

**Q.** What about the GI50 [22] of the same compound?
**A.** The GI50 was 10.3 µM.

**Q.** And the LC50 [22]?
**A.** Its LC50 is 96.3 µM.

**Q.** And the TGI [22]?
**A.** The TGI was 31.5 µM.

**Q.** What about the GI50 [23] of the same compound?
**A.** The GI50 was 1.45 µM.

**Q.** And the TGI [23]?
**A.** Its TGI is 4.34 µM.

**Q.** And the CC50 [23, 37]?
**A.** The CC50 was 17.3 µM.

**Q.** What about the GI50 [24] of the same compound?
**A.** The GI50 was 4.47 µM.

**Q.** And the TGI [24]?
**A.** Its TGI is 15.9 µM.

**Q.** What about the CC50 [24, 37] of the same compound?
**A.** The CC50 was 39.9 µM.

**Q.** And the growth at 0.1 µM [25]?
**A.** The growth at 0.1 µM was 97%.

**Q.** What about the growth at 0.1 µM [26] of the same compound?
**A.** The growth at 0.1 µM was 90%.

**Q.** What about the growth at 0.1 µM [27] of the same compound?
**A.** Its growth at 0.1 µM is 95%.

**Q.** And the growth at 0.1 µM [28]?
**A.** Its growth at 0.1 µM is 99%.

**Q.** What about the growth at 0.1 µM [29] of the same compound?
**A.** The growth at 0.1 µM was 94%.

**Q.** And the growth at 1 µM [30]?
**A.** The growth at 1 µM was 100%.

**Q.** What about the growth at 1 µM [31] of the same compound?
**A.** Its growth at 1 µM is 93%.

**Q.** And the growth at 1 µM [32]?
**A.** Its growth at 1 µM is 80%.

**Q.** And the growth at 1 µM [33]?
**A.** Its growth at 1 µM is 88%.

**Q.** And the growth at 1 µM [34]?
**A.** Its growth at 1 µM is 90%.

**Q.** What about the growth at 1 µM [35] of the same compound?
**A.** The growth at 1 µM was 68%.

**Q.** What about the growth at 1 µM [36] of the same compound?
**A.** The growth at 1 µM was 93%.
